Laboratory results as given in patent US20030023104A1, “Therapeutic compound - fatty acid conjugates” (COMMONWEALTH SCIENTIFIC AND INDUSTRIAL RESEARCH ORGANISATION, priority 1995, published 2003).
Where “and” joins values, the source holds several entries; their conditions need not be identical. Equal entries are not always repeated. Where two headings read alike, the source gives them in different places.

Experiments:
[1] = tested on: HIV-I MN; test: Anti HIV activity, Ag gp120 production in infected C8166 cells; assay type: cell-based; conditions: for Ratio of AZT: Conjugate EC50: C8166 cell line; for EC50: C8166 cells infected with HIV-I MN, 5 days, read-out: EC50 (concentration which reduces Ag gp120 by 50% in infected cell cultures)
Method: (§1) The anti-HIV activities of AZT-Suc-GTP1 and AZT-Suc-GTP2 were also tested. Infected cells were incubated for 5 days with compound. Compounds were dissolved in DMSO and 5-fold dilutions were used. The following parameters were measured: syncytia formation, virus antigen gp120 production, cell survival. Cytotoxicity is also measured in uninfected cells.
(§2) C8166 (human T-lymphoblastoid cells) infected with HIV-I MN
(§3) EC50=concentration which reduces Ag gp120by 50% in infected cell cultures.

[2] = tested on: JM (semi mature human T-cell from lymphoblastoid leukemia); test: Cell growth (cytotoxicity) in JM cells; assay type: cell-based; conditions: for IC50: 5 days, read-out: IC50 (concentration of drug which reduces cell growth by 50%)
Method: as §1
(§4) JM (semi mature human T-cell from lymphoblastoid leukemia) infected with HIV-I U4550
(§5) IC50=concentration of drug which reduces cell growth by 50%.

[3] = tested on: peripheral blood mononuclear cells (PBMC); test: Cytotoxicity of AZT and conjugates, MTS viability assay, PBMC; assay type: cell-based, human; conditions: 40 h, drug in ethanol
Method: (§6) The cytotoxicity of AZT and AZT-fatty acid conjugates (AZT-Suc-GTP1P2 and P3) was tested in vitro with JURKAT (acute T cell human leukemia) and peripheral blood mononuclear cells (PBMC).
Human peripheral blood mononuclear cells (PBMC) were isolated from three healthy donors by centrifugation on Ficoll-Paque (Pharmacia). Cells were seeded into a 96-well plates at a density of 2×10^5 cells/200 ul complete RPMI ± drug and cultured for 40 h.
(§7) Each concentration was tested in at least 3 wells.

[4] = tested on: JURKAT (acute T cell human leukemia); test: Cytotoxicity of AZT and conjugates, MTS viability assay, JURKAT; assay type: cell-based
Method: as §6, §7

[5] = tested on: HIV-I U4550; test: Anti HIV activity, Ag gp120 production in infected JM cells; assay type: cell-based; conditions: for Ratio of AZT: Conjugate EC50: JM cell line; for EC50: JM cells infected with HIV-I U4550, 5 days, read-out: EC50 (concentration which reduces Ag gp120 by 50% in infected cell cultures)
Method: as §1, §4, §3

[6] = tested on: C8166 (human T-lymphoblastoid cells); test: Cell growth (cytotoxicity) in C8166 cells; assay type: cell-based; conditions: for IC50: 5 days, read-out: IC50 (concentration of drug which reduces cell growth by 50%)
Method: as §1, §2, §5

[7] = tested on: human peripheral blood mononuclear cells; test: Cytotoxicity of chlorambucil and conjugates, MTS assay, PBMC; assay type: cell-based; conditions: for IC50: ethanol delivery
Method: Human peripheral blood mononuclear cells (PBMC) were isolated from one healthy donor by centrifugation on Ficoll-Paque (Pharmacia). Cells were seeded into a 96-well plates at a density of 2×10^5 cells/200 μl complete RPMI ± drug and cultured for 40 h.
as §7

[8] = tested on: PC3 human prostate cancer cells; test: Cytotoxicity of chlorambucil and conjugates, MTS assay, PC3; assay type: cell-based; conditions: for IC50: PC3, ethanol delivery, 72 h
Method: Cells were further cultured for 72 h.
as §7

[9] = tested on: JURKAT cells (acute T cell human leukemia)
Method: The cytotoxicity of chlorambucil and chlorambucil fatty acid conjugates (CGTP1. P2 and P3) were tested in vitro with JURKAT cells (acute T cell human leukemia). Cells were incubated with drug and viability was determined by a colourmetric proliferation test. Cytotoxicity towards other cells lines was also tested (PC3 human prostate cancer cells, B16 mouse melanoma cells and human peripheral blood mononuclear cells).
JURKAT cells were seeded into 96-well plates at a density of 1.6×10^4 cells/200 μl complete RPMI ± drug and cultured for 64 h. A 1:3 split of confluent PC3 cells in a 75 cm^2 flask were seeded into a 96-well plate and cultured for 48 h in complete RPMI. Media was removed and complete RPMI ± drug was added to wells. Cells were further cultured for 72 h.
i) Ethanol. Drugs were dissolved in ethanol and added to culture media. The final concentration of ethanol in media was no greater than 1% (v/v). This delivery was used for experiments with JURKAT, PBMC, PC3 and B16 cell types.
ii) Coating of plates. Drugs were dissolved in ethanol and aliquots (up to 40 μl) were added to 90% (v/v) isopropanol. Solution (50 μl) was then added to wells of a 96-well plate and the solvent evaporated by heating at 37° C. Media ± cells was then added. This delivery was used for some experiments with JURKAT cells.
Viability was determined using the MTS assay (CellTiter 96TM AQueous Non-Radioactive Cell Proliferation Assay) from Promega. Reagent (40 μl) was added to each well and absorbance values at 490 nm were determined 1 to 4 h later. The effect of drug on cell viability was compared to cultures set up containing no drug (100% viability). Wells containing no cells were used to control for background absorbance (0% viability). Each concentration was tested in at least 3 wells. Concentrations necessary to cause a 50% inhibition of cellular growth of control cells (IC50) were calculated by linear regression.

[10] = tested on: B16 mouse melanoma cells; test: Cytotoxicity of chlorambucil and conjugates, MTS assay, B16; assay type: cell-based; conditions: for IC50: B16, ethanol delivery, 48 h
Method: Media was removed and complete EMEM ± drug was added to wells. Cells were further cultured for 48 h.
as §7

[11] = tested on: coordination of mice; test: Coordination on Rotor-Rod; assay type: in vivo, Quackenbush Strain mice; conditions: 1 and 4 hr after ip injection, 1.6 rpm
Method: Coordination of mice after treatment was also assessed by placing treated animals on a Rotor-Rod at 1.6 rpm. The ability of animals to stay on the rod was assessed.

[12] = tested on: pain response on heated plate; conditions: for Time Response ± SEM: doses 5, 10 & 20 mg Morphine/kg pooled, 12 mice per group; for Behaviour Score ± SEM: pooled doses, panel score 0 (agitated) to 3 (placid)
Method: The biological activities of Morphine (Mo) and fatty acid conjugates were tested in an antinociceptive assay using mice. Various doses and duration of pain-killing effect of the drugs were examined.
Quackenbush Strain mice (male, 5-week-old, approximately 30 g live weight) were used for the experiments. Animals were given free access to food and water prior to and during the experiment. Animals were divided into groups of 12 and individually weighed. The mean weight for each group was calculated. Mice were then placed on a metal block heated to 50° C. and the time taken for the animals to show signs of discomfort was measured (baseline response: control). Mice were then injected intraperitoneally (ip) with various doses of Morphine or Morphine-fatty acid conjugate. Morphine was made up in a H2O solution and Morphine-fatty acids were made up in an emulsion containing 10% glycerylmonooleate, 21% Miglyol, 6% ethanol, 24% Tween 80 (33%) and 39% H2O. 0.2 ml of appropriate solution was injected ip into each mouse. At different times after injection, responses on the heated plate were measured. In each experiment 3 doses of Morphine and Morphine-fatty acid and 2 time points were tested. A single mouse was used for each treatment and the entire experiment repeated at least 3 times. […] Members of the panel were asked to score mice behaviour according to the following key:
0=agitated mouse, distressed
1=showing mild discomfort
2=not agitated or uncomfortable but still alert
3=placid. docile; not at all worried.
Results from the panel were averaged.

[13] = tested on: B16 melanoma cells; test: Tumour Cytotoxicity Model (B16 melanoma in C57 mice); assay type: in vivo, C57 black mice; parameters: Mean (standard error) of B16 tumour volume adjusted for the variation in initial volume: scale not given here; conditions: for Mean (standard error) of B16 tumour volume adjusted for the variation in initial volume: statistically modified tumour volume; for B16 Tumour Volume: individual mice
Method: Groups of C57 black mice were given an initiation dose of 2×10^5 B16 melanoma cells as an intradermal injection. The cells were suspended in MEM without serum. The abdomen was clipped and 100 μl of cells + MEM was injected. […] The tumours were measured with a micrometer and photographed just prior to the injection of drug (day 8-10).
The cytotoxic drugs and their fatty acid conjugates were dissolved or suspended in 4:1 soy bean oil:ethyl oleate. A 10 mg/ml or a 20 mg/ml solution of each parent drug or the fatty acid conjugate made to the same molar concentration as the parent drug was then injected into the same region as the tumour at a dose of 0.5 mg or 1 mg. The tumours were then photographed, measured and re-injected every two to three days.

[14] = JURKAT, addition of ethanol solution to culture media
[15] = JURKAT, coating of plates (Table 8)
[16] = JURKAT, drugs coated onto plates (Table 9)

Compound | Ratio of AZT: Conjugate EC50 [1] | EC50 [1] | fold more cytotoxic than AZT [2] | IC50 [2] | Ratio of AZT: Conjugate EC50 [5] | EC50 [5] | fold more cytotoxic than AZT [6] | IC50 [6] | IC50 ([7]; PBMC (1) = one donor, 40 h) | IC50 ([7]; PBMC (3) = three donors) | IC50 [8] | IC50 [9, 14] | IC50 [9, 15] | IC50 [9, 16] | IC50 ([9]; JURKAT, ethanol delivery, 64 h) | IC50 [10] | ability to stay on the Rotor-Rod (coordination) [11] | mean time response ([12]; 5 mg Mo/kg ip, 1 hr) | mean time response ([12]; 5 mg Mo/kg ip, 4 hr) | mean time response ([12]; 5 mg Mo/kg ip, 6 hr) | also measured
CCCCCCCCCCCCCCCC(=O)OCC(CO)(CO)NC(=O)CNC(=O)CCC(=O)OC[C@H]1O[C@@H](n2cc(C)c(=O)[nH]c2=O)C[C@@H]1N=[N+]=[N-] [AZT-Suc-GTP1] | 1.3 | 0.012 µM | 50 | 100 µM | 12.5 | 8 µM | 50 | 100 µM | – | – | – | – | – | – | – | – | – | – | – | – | IC50 [3]: 26.7 µM; times more cytotoxic than the parent drug ([4]; JURKAT cells, versus AZT): 40; IC50 ([4]; JURKAT, 64 h, drug in ethanol, MTS): 43 µM
CCCCCCCCCCCCCCCC(=O)OCC(CO)(COC(=O)CCCCCCCCCCCCCCC)NC(=O)CNC(=O)CCC(=O)OC[C@H]1O[C@@H](n2cc(C)c(=O)[nH]c2=O)C[C@@H]1N=[N+]=[N-] [AZT-Suc-GTP2] | 0.5 | 0.032 µM | 25 | 200 µM | approx. 0.5 | > 200 µM | 25 | 200 µM | – | – | – | – | – | – | – | – | – | – | – | – | –
CCCCCCCCCCCCCCCC(=O)OCC(CO)(CO)NC(=O)CNC(=O)CCCc1ccc(N(CCCl)CCCl)cc1 [CGTP1, Chlorambucil-Gly-Tris-Monopalmitate] | – | – | – | – | – | – | – | – | 7.1 µM | 5.5 µM | 10.7 µM | 6.5 µM | 8.6 µM | 8.4 µM | 6.5 µM | 23.1 µM | – | – | – | – | fold increase in toxicity to normal cells (PBMC) versus chlorambucil ([7]; PBMC): approximately 5; Clorambucil to CGTP1 Ratio (IC50) ([7]; PBMC (1)): 6.3; Clorambucil to CGTP1 Ratio (IC50) ([7]; PBMC (3)): approx. 4; Clorambucil to CGTP1 Ratio (IC50) ([8]; PC3): 15.0; Clorambucil to CGTP1 Ratio (IC50) ([9]; JURKAT): 15 and 15.5; cytotoxicity to JURKAT cells (in words) ([9]; comparison of conjugate, equimolar mixture and GTP1 alone): more cytotoxic to JURKAT cells than an equimolar mixture of chlorambucil and GTP1; Clorambucil to CGTP1 Ratio (IC50) ([10]; B16): 1.6
CN1CC[C@]23c4c5ccc(O)c4O[C@H]2[C@@H](O)C=C[C@H]3[C@H]1C5 [Morphine, reference compound] | – | – | – | – | – | – | – | – | – | – | – | – | – | – | – | – | able to stay on the rotor-rod | 27.8 (4) sec | 23.9 (8) sec | 20.0 (4) sec | mean time response ([12]; 1 mg Mo/kg ip, 4 hr, standard error of each mean ±2.86): 23.2 s; mean time response ([12]; 1 mg Mo/kg ip, 6 hr, standard error of each mean ±2.86): 20.8 s; mean time response ([12]; 10 mg Mo/kg ip, 4 hr, standard error of each mean ±2.86): 23.0 s; mean time response ([12]; 10 mg Mo/kg ip, 6 hr, standard error of each mean ±2.86): 24.2 s; Time Response ± SEM ([12]; 1 hr after ip injection): 32.7 ± 2.74 s; Behaviour Score ± SEM ([12]; 1 hr after ip injection): 2.46 ± 0.166; Time Response ± SEM ([12]; 4 hr after ip injection): 28.2 ± 2.74 s; Behaviour Score ± SEM ([12]; 4 hr after ip injection): 1.93 ± 0.166
CCCCCCCCCCCCCCCC(=O)OCC(CO)(COC(=O)CCCCCCCCCCCCCCC)NC(=O)CNC(=O)CCC(=O)Oc1ccc2c3c1O[C@H]1[C@@H](O)C=C[C@H]4[C@@H](C2)N(C)CC[C@@]341 [Morphine-Suc-GTP2, Morphine-Suc-Gly-Tris-Dipalmitate] | – | – | – | – | – | – | – | – | – | – | – | – | – | – | – | – | able to stay on the rotor-rod | 24.0 (4) sec | 30.5 (8) sec | 27.8 (4) sec | Time Response ± SEM ([12]; 1 hr after ip injection): 26.7 ± 2.74 s; Behaviour Score ± SEM ([12]; 1 hr after ip injection): 2.34 ± 0.166; Time Response ± SEM ([12]; 4 hr after ip injection): 31.2 ± 2.74 s; Behaviour Score ± SEM ([12]; 4 hr after ip injection): 2.35 ± 0.166; duration of pain-killing effect compared with morphine ([12]; ip injection): longer lasting pain-killing effect than unconjugated morphine
Chlorambucil [reference compound] | – | – | – | – | – | – | – | – | 45 µM | < 22 µM | 160 µM | 101 µM | 219 µM | 219 µM | 101 µM | 36.5 µM | – | – | – | – | difference in tumour volume from the Vehicle group (95% level) ([13]; 0.5 mg and 1.0 mg groups): significant difference; Mean (standard error) of B16 tumour volume adjusted for the variation in initial volume ([13]; 13/11/95, 0.5 mg): 3.01 (0.610); Mean (standard error) of B16 tumour volume adjusted for the variation in initial volume ([13]; 15/11/95, 0.5 mg): 3.29 (0.955); Mean (standard error) of B16 tumour volume adjusted for the variation in initial volume ([13]; 16/11/95, 0.5 mg): 3.46 (1.15); Mean (standard error) of B16 tumour volume adjusted for the variation in initial volume ([13]; 17/11/95, 0.5 mg): 3.65 (1.38); toxicity observed in test group ([13]; C57 mice, repeated injection every two to three days): High toxicity; B16 Tumour Volume ([13]; Day 1, drug dose 0.5 mg injected at tumour region): 0.5 mm^2 and 1.6 mm^2 and 8.2 mm^2 and 16.6 mm^2; B16 Tumour Volume ([13]; Day 3, drug dose 0.5 mg): 0.5 mm^2 and 0 mm^2 and 21.8 mm^2 and 38.3 mm^2; B16 Tumour Volume ([13]; Day 5, drug dose 0.5 mg): 0 mm^2 (2×) and 7.7 mm^2 and 108.4 mm^2; B16 Tumour Volume ([13]; Day 6, drug dose 0.5 mg): 0 mm^2 (2×) and 7.7 mm^2 and 125.1 mm^2; B16 Tumour Volume ([13]; Day 7, drug dose 0.5 mg): 0 mm^2 (2×) and 5.9 mm^2 and 174.1 mm^2; mice died ([13]; chlorambucil test group): 3 out of 7
